Data published in the NIST ThermoML archive (doi:10.1016/j.jct.2017.12.023).
Numbers after ± are expanded uncertainties.

Assay: refractive index (Na D-line) (dimensionless); xn = mol fraction of the nth substance listed
Conditions: 100 kPa, Liquid, Standard Abbe refractometry

CCOS(=O)(=O)[O-].CCn1cc[n+](C)c1 [1-ethyl-3-methylimidazolium ethyl sulfate] + CN1CCCC1=O
refractive index
Conditions | 288.15 K | 293.15 K | 298.15 K | 303.15 K | 308.15 K | 313.15 K | 318.15 K | 323.15 K | 328.15 K | 333.15 K
x1 = 0.1009 | 1.47616 ± 0.00069 | 1.47418 ± 0.00069 | 1.47223 ± 0.00069 | 1.47026 ± 0.00069 | 1.46833 ± 0.00069 | 1.46634 ± 0.00069 | 1.4644 ± 0.00069 | 1.46246 ± 0.00069 | 1.46054 ± 0.00069 | 1.45863 ± 0.00069
x1 = 0.2012 | 1.47863 ± 0.00069 | 1.47679 ± 0.00069 | 1.47496 ± 0.00069 | 1.47313 ± 0.00069 | 1.4713 ± 0.00069 | 1.46948 ± 0.00069 | 1.46772 ± 0.00069 | 1.4659 ± 0.00069 | 1.46409 ± 0.00069 | 1.46232 ± 0.00069
x1 = 0.3021 | 1.47981 ± 0.00069 | 1.47807 ± 0.00069 | 1.47633 ± 0.00069 | 1.4746 ± 0.00069 | 1.47285 ± 0.00069 | 1.47118 ± 0.00069 | 1.4695 ± 0.00069 | 1.46777 ± 0.00069 | 1.46607 ± 0.00069 | 1.46438 ± 0.00069
x1 = 0.4012 | 1.48047 ± 0.00069 | 1.47881 ± 0.00069 | 1.47714 ± 0.00069 | 1.47547 ± 0.00069 | 1.47384 ± 0.00069 | 1.47225 ± 0.00069 | 1.47069 ± 0.00069 | 1.46906 ± 0.00069 | 1.46742 ± 0.00069 | 1.46584 ± 0.00069
x1 = 0.4973 | 1.48086 ± 0.00069 | 1.47925 ± 0.00069 | 1.47766 ± 0.00069 | 1.47608 ± 0.00069 | 1.47453 ± 0.00069 | 1.473 ± 0.00069 | 1.47143 ± 0.00069 | 1.46985 ± 0.00069 | 1.46828 ± 0.00069 | 1.46677 ± 0.00069
x1 = 0.596 | 1.48094 ± 0.00069 | 1.47939 ± 0.00069 | 1.47787 ± 0.00069 | 1.47635 ± 0.00069 | 1.47488 ± 0.00069 | 1.47343 ± 0.00069 | 1.47195 ± 0.00069 | 1.47045 ± 0.00069 | 1.46895 ± 0.00069 | 1.46746 ± 0.00069
x1 = 0.6998 | 1.48099 ± 0.00069 | 1.47951 ± 0.00069 | 1.47804 ± 0.00069 | 1.47659 ± 0.00069 | 1.47517 ± 0.00069 | 1.47375 ± 0.00069 | 1.47229 ± 0.00069 | 1.47084 ± 0.00069 | 1.46939 ± 0.00069 | 1.46794 ± 0.00069
x1 = 0.7961 | 1.48127 ± 0.00069 | 1.47983 ± 0.00069 | 1.47841 ± 0.00069 | 1.47701 ± 0.00069 | 1.47561 ± 0.00069 | 1.47423 ± 0.00069 | 1.47284 ± 0.00069 | 1.47143 ± 0.00069 | 1.47005 ± 0.00069 | 1.46865 ± 0.00069
x1 = 0.8821 | 1.48147 ± 0.00069 | 1.48006 ± 0.00069 | 1.47867 ± 0.00069 | 1.47728 ± 0.00069 | 1.47592 ± 0.00069 | 1.47453 ± 0.00069 | 1.47317 ± 0.00069 | 1.4718 ± 0.00069 | 1.47044 ± 0.00069 | 1.4691 ± 0.00069
x1 = 1 | 1.48155 ± 0.00069 | 1.48018 ± 0.00069 | 1.47882 ± 0.00069 | 1.47746 ± 0.00069 | 1.47611 ± 0.00069 | 1.47474 ± 0.00069 | 1.47341 ± 0.00069 | 1.47206 ± 0.00069 | 1.47075 ± 0.00069 | 1.46943 ± 0.00069

CCOS(=O)(=O)[O-].CCn1cc[n+](C)c1 [1-ethyl-3-methylimidazolium ethyl sulfate] + CCCCCCO
refractive index
Conditions | x1 = 0.1016 | x1 = 0.2016 | x1 = 0.3005 | x1 = 0.3989 | x1 = 0.4975 | x1 = 0.5956 | x1 = 0.6647 | x1 = 0.7947 | x1 = 0.897 | x1 = 1
288.15 K | 1.42855 ± 0.00069 | 1.43639 ± 0.00069 | 1.44364 ± 0.00069 | 1.45017 ± 0.00069 | 1.45653 ± 0.00069 | 1.46223 ± 0.00069 | 1.46592 ± 0.00069 | 1.47274 ± 0.00069 | 1.47731 ± 0.00069 | 1.48155 ± 0.00069
293.15 K | 1.42666 ± 0.00069 | 1.4346 ± 0.00069 | 1.44194 ± 0.00069 | 1.44856 ± 0.00069 | 1.45499 ± 0.00069 | 1.46075 ± 0.00069 | 1.46447 ± 0.00069 | 1.47132 ± 0.00069 | 1.47593 ± 0.00069 | 1.48018 ± 0.00069
298.15 K | 1.42478 ± 0.00069 | 1.43283 ± 0.00069 | 1.44025 ± 0.00069 | 1.44701 ± 0.00069 | 1.45346 ± 0.00069 | 1.45927 ± 0.00069 | 1.46303 ± 0.00069 | 1.4699 ± 0.00069 | 1.47456 ± 0.00069 | 1.47882 ± 0.00069
303.15 K | 1.4229 ± 0.00069 | 1.43107 ± 0.00069 | 1.43858 ± 0.00069 | 1.44545 ± 0.00069 | 1.45193 ± 0.00069 | 1.4578 ± 0.00069 | 1.4616 ± 0.00069 | 1.46848 ± 0.00069 | 1.4732 ± 0.00069 | 1.47746 ± 0.00069
308.15 K | 1.42103 ± 0.00069 | 1.42932 ± 0.00069 | 1.43692 ± 0.00069 | 1.44387 ± 0.00069 | 1.4504 ± 0.00069 | 1.45631 ± 0.00069 | 1.46017 ± 0.00069 | 1.46706 ± 0.00069 | 1.47182 ± 0.00069 | 1.47611 ± 0.00069
313.15 K | 1.41917 ± 0.00069 | 1.42758 ± 0.00069 | 1.43525 ± 0.00069 | 1.44225 ± 0.00069 | 1.44886 ± 0.00069 | 1.45481 ± 0.00069 | 1.45872 ± 0.00069 | 1.46564 ± 0.00069 | 1.47044 ± 0.00069 | 1.47474 ± 0.00069
318.15 K | 1.41729 ± 0.00069 | 1.42582 ± 0.00069 | 1.43358 ± 0.00069 | 1.44065 ± 0.00069 | 1.44735 ± 0.00069 | 1.45333 ± 0.00069 | 1.45726 ± 0.00069 | 1.46423 ± 0.00069 | 1.46907 ± 0.00069 | 1.47341 ± 0.00069
323.15 K | 1.41543 ± 0.00069 | 1.42407 ± 0.00069 | 1.43195 ± 0.00069 | 1.4391 ± 0.00069 | 1.44582 ± 0.00069 | 1.45184 ± 0.00069 | 1.45582 ± 0.00069 | 1.46285 ± 0.00069 | 1.46769 ± 0.00069 | 1.47206 ± 0.00069
